In the NIST ThermoML archive (doi:10.1016/j.fluid.2018.05.011) one finds Critical pressure and Critical temperature data, which are given here for four compounds.

± gives the expanded uncertainty stated by the source.

For this data set the following is noted: Liquid; Resistive pulse heating.
Regarding `OCCOCCOCCOCCOCCOCCO` [3,6,9,12,15-pentaoxaheptadecane-1,17-diol], the Critical pressure is 1820 ± 70 kPa and the Critical temperature turned out to be 868 ± 13 K.

As for `OCCOCCOCCOCCOCCO` [3,6,9,12-tetraoxatetradecane-1,14-diol], the Critical pressure turned out to be 2130 ± 90 kPa and the Critical temperature stood at 842 ± 13 K.

Take `OCCOCCO` [diethylene glycol]: the Critical pressure worked out at 4830 ± 190 kPa and the Critical temperature was found to be 753 ± 11 K.

As for `OCCOCCOCCO` [triethylene glycol], the Critical pressure turned out to be 3570 ± 140 kPa and the Critical temperature stood at 788 ± 12 K.
